Measured values: PubChem BioAssay AID248 (DTP/NCI, 2004)
Several values for one entry are separate records, joined by “and”; a condition that tells them apart may be missing. Identical values can stand only once. Toxic doses and inconclusive results are not listed. Cut-off read from the data, not from the text of the source: active = T/C of 150% or more; inactive = T/C below 125%.

System: L1210 leukemia ip in BDF1 mice, survival T/C
Assay: NCI In Vivo Anticancer Drug Screen. Data for tumor model L1210 Leukemia (intraperitoneal) in B6D2F1 (BDF1) mice
Conditions: endpoint: mean survival time, higher = longer survival
Procedure, shortened: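 Antitumor effect is assessed in tumor-bearing animals. Survival in the compound arm is compared with a vehicle-dosed control arm and expressed as their quotient.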

[1] = dose: 100.0 mg/kg/injection, schedule: Q04DX003 (ip), vehicle: Klucel (hydroxypropylcellulose) (HPC)
[2] = dose: 200.0 mg/kg/injection, schedule: Q04DX003 (ip), vehicle: Klucel (hydroxypropylcellulose) (HPC)
[3] = dose: 400.0 mg/kg/injection, schedule: Q04DX003 (ip), vehicle: Klucel (hydroxypropylcellulose) (HPC)
[4] = dose: 100.0 mg/kg/injection, schedule: Q01DX001 (ip), vehicle: carboxymethylcellulose (CMC)
[5] = dose: 200.0 mg/kg/injection, schedule: Q01DX001 (ip), vehicle: carboxymethylcellulose (CMC)
[6] = dose: 100.0 mg/kg/injection, schedule: Q01DX009 (ip), vehicle: saline
[7] = dose: 200.0 mg/kg/injection, schedule: Q01DX009 (ip), vehicle: saline
[8] = dose: 200.0 mg/kg/injection, schedule: Q04DX003 (ip), vehicle: saline with Tween-80
[9] = dose: 400.0 mg/kg/injection, schedule: Q04DX003 (ip), vehicle: saline with Tween-80
[10] = dose: 100.0 mg/kg/injection, schedule: Q04DX003 (ip), vehicle: saline with Tween-80
[11] = dose: 100.0 mg/kg/injection, schedule: Q01DX009 (ip), vehicle: saline with Tween-80
[12] = dose: 200.0 mg/kg/injection, schedule: Q01DX009 (ip), vehicle: saline with Tween-80
[13] = dose: 400.0 mg/kg/injection, schedule: Q01DX009 (ip), vehicle: saline with Tween-80

Measured: T/C

O=S(=O)(/N=C(Cl)/C(Cl)=N/S(=O)(=O)c1ccccc1)c1ccccc1
inactive: [1] 95 % of control | [2] 100 % of control | [3] 95 % of control

Nc1nc2c(nc(NO)n2C2OC(CO)C(O)C2O)c(=O)[nH]1 (configuration not stated)
inactive: dose: 50.0 mg/kg/injection, schedule: Q01DX001 (ip), vehicle: carboxymethylcellulose (CMC) 95 % of control | [4] 110 % of control | [5] 101 % of control

Cc1c(-c2ccc(Cl)cc2)nc2cc(Cl)ccc2c1C(=O)O
inactive: dose: 100.0 mg/kg/injection, schedule: Q01DX005 (ip), vehicle: saline 107 % of control | [6] 100 % of control | dose: 200.0 mg/kg/injection, schedule: Q01DX005 (ip), vehicle: saline 93 % of control | [7] 103 % of control | dose: 400.0 mg/kg/injection, schedule: Q01DX005 (ip), vehicle: saline 91 % of control

Cc1ccc(S(=O)(=O)Nc2cc(Cl)c(I)cc2Cl)cc1
inactive: [8] 90 % of control | [9] 101 % of control

O=C1NC(=O)C(C2CCCCC2)(C2CCCCC2)N1
inactive: [6] 103 % of control | [10] 107 % of control | [7] 94 % of control | [8] 107 % of control | dose: 400.0 mg/kg/injection, schedule: Q01DX009 (ip), vehicle: saline 88 % of control | [9] 93 % of control

CC(C)CCCCCc1ccc(OCCOc2ccc(C(=O)Nc3ccc(S(=O)(=O)F)cc3N)cc2)cc1
inactive: dose: 100.0 mg/kg/injection, schedule: Q01DX009 (ip), vehicle: saline sonified 107 % of control | [1] 98 % of control | dose: 200.0 mg/kg/injection, schedule: Q01DX009 (ip), vehicle: saline sonified 100 % of control | [2] 96 % of control | dose: 400.0 mg/kg/injection, schedule: Q01DX009 (ip), vehicle: saline sonified 98 % of control | [3] 94 % of control

N#CCN1CCOCC1
inactive: dose: 25.0 mg/kg/injection, schedule: Q01DX009 (ip), vehicle: saline 122 % of control | dose: 50.0 mg/kg/injection, schedule: Q01DX009 (ip), vehicle: saline 101 % of control | [6] 97 % of control and 98 % of control | dose: 100.0 mg/kg/injection, schedule: Q04DX003 (ip), vehicle: saline 103 % of control | [7] 110 % of control | dose: 200.0 mg/kg/injection, schedule: Q04DX003 (ip), vehicle: saline 97 % of control

Cc1ccc(S(=O)(=O)OCC2OCOC2C2OCOC2COS(=O)(=O)c2ccc(C)cc2)cc1 (configuration not stated)
inactive: dose: 56.25 mg/kg/injection, schedule: Q01DX009 (ip), vehicle: carboxymethylcellulose (CMC) 95 % of control | [4] 95 % of control | dose: 112.5 mg/kg/injection, schedule: Q01DX009 (ip), vehicle: carboxymethylcellulose (CMC) 89 % of control | [5] 96 % of control | dose: 225.0 mg/kg/injection, schedule: Q01DX009 (ip), vehicle: carboxymethylcellulose (CMC) 87 % of control | dose: 400.0 mg/kg/injection, schedule: Q01DX001 (ip), vehicle: carboxymethylcellulose (CMC) 90 % of control

OCCN(CCO)c1cc(O)cc(O)c1
inactive: [11] 98 % of control | [10] 98 % of control | [12] 96 % of control | [8] 91 % of control | [13] 96 % of control | [9] 102 % of control

CC1=CC(=O)C(C(=O)CC(O)(C(F)(F)F)C(F)(F)F)C(=O)O1 (configuration not stated)
inactive: dose: 12.5 mg/kg/injection, schedule: Q01DX009 (ip), vehicle: saline with Tween-80 92 % of control | dose: 25.0 mg/kg/injection, schedule: Q01DX009 (ip), vehicle: saline with Tween-80 103 % of control | dose: 50.0 mg/kg/injection, schedule: Q01DX009 (ip), vehicle: saline with Tween-80 88 % of control

CCOC(=O)CCc1nc2ccc3ccccc3c2c(=O)[nH]1
inactive: dose: 100.0 mg/kg/injection, schedule: Q04DX002 (ip), vehicle: Klucel (hydroxypropylcellulose) (HPC) 88 % of control | dose: 200.0 mg/kg/injection, schedule: Q04DX002 (ip), vehicle: Klucel (hydroxypropylcellulose) (HPC) 91 % of control | dose: 400.0 mg/kg/injection, schedule: Q04DX002 (ip), vehicle: Klucel (hydroxypropylcellulose) (HPC) 94 % of control

Brc1cccc[n+]1Cc1ccc(C[n+]2ccccc2Br)cc1
inactive: dose: 2.66 mg/kg/injection, schedule: Q01DX Z (ip), vehicle: saline 98 % of control

C=CCS(=O)(=O)CC=C
inactive: [11] 92 % of control | [12] 92 % of control | [13] 93 % of control

Cc1[nH]c2ccccc2c1C(=O)Cc1ccc(Cl)c(Cl)c1
inactive: dose: 50.0 mg/kg/injection, schedule: Q01DX001 (ip), vehicle: saline 101 % of control | dose: 100.0 mg/kg/injection, schedule: Q01DX001 (ip), vehicle: saline 98 % of control | dose: 200.0 mg/kg/injection, schedule: Q01DX001 (ip), vehicle: saline 98 % of control | dose: 400.0 mg/kg/injection, schedule: Q01DX001 (ip), vehicle: saline 101 % of control
